{"source": "patent US20250121046A1", "about": "“MRNA THERAPEUTIC COMPOSITIONS” (Nutcracker Therapeutics, Inc., priority 2022, published 2025)", "key": {"[1]": {"experiment": "Rat toxicology study, control mRNA in DV-140-F2 intramuscular (Example 8)", "format": "in vivo, Sprague-Dawley rats", "experimental": "Briefly, Sprague-Dawley rats (n=8) were treated with a control mRNA formulated in DV-140-F2 at 0.03 or 0.3 mg/kg or PBS vehicle. Injections were done 4 times over the course of 13 days and were administered intramuscularly into the hind limb. Whole blood was taken for hematology, and serum taken for clinical chemistry and cytokine analysis at 6 hours post the first dose and final dose, and 2 weeks post the final dose. Additionally, 2 of the animals were sacrificed at 6 hours post the final dose and 2 weeks post final dose and a gross necropsy was performed. Tissue samples were retained and histopathology run on select organs."}, "[2]": {"experiment": "Rat toxicology study, control mRNA in DV-140-F2 intramuscular (Example 8)", "format": "in vivo, Sprague-Dawley rats", "details": "Therapeutic dose scaled for rat: 4 doses in 2 weeks, 30 μg RNA IM"}, "[3]": {"experiment": "Mouse efficacy studies, tolerability assessments (Example 8)", "format": "in vivo"}, "[4]": {"system": "cervical cancer whose tumors express PD-L1 (CPS≥1)", "details": "single agent, disease progression on or after chemotherapy, KEYNOTE-158; cited from earlier work"}, "[5]": {"system": "cervical cancer whose tumors express PD-L1 (CPS≥1)", "details": "in combination with chemotherapy, with or without bevacizumab; cited from earlier work"}, "[6]": {"biological_target": "T1, HVEM (Homo sapiens, UniProt Q92956)", "T1 construct": "host or cells: HVEM reporter cell line (not further described)", "T1 sequence (Q92956 39-283)": "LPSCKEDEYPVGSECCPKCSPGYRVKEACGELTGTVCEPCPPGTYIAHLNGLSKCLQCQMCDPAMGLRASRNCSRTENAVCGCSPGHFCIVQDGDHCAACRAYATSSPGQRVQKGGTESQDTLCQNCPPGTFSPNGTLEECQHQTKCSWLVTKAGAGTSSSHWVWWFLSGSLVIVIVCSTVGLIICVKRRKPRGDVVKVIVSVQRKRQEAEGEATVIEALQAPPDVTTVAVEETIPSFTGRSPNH", "experiment": "HVEM activation by LIGHT-transfected cells (HVEM reporter cell line)", "format": "cell-based", "from_the_text": "FIGS. 1A and 1B depict the inhibition of the activation of membrane-stabilized LIGHT by soluble LIGHT.\nFIG. 12 illustrates pre-blocking of soluble LIGHT in HVEM co-HEK transfected cells.\nFIGS. 13A-13C are a comparison of HVEM activation with supernatant (blue) or cells (orange) for soluble LIGHT or membrane-stabilized LIGHT.\nThe incorporation of a modified membrane-stabilized LIGHT into a cancer immunotherapy allows for the effective targeting cancers, such as HPV-driven cancers.\n[…] FIGS. 13A-13C show increased function of membrane-stabilized LIGHT on cells with HVEM reporter cell line and FIGS. 14A and 14B show increased cellular expression of membrane-stabilized LIGHT."}, "[7]": {"system": "primary human T cells", "experiment": "Human T cell proliferation, ENG or WT hLIGHT mRNA with hIL-12 mRNA (Example 1A)", "format": "cell-based", "details": "anti-CD3 30 or 100 ng/mL, 4 days, relative to IL-12 and WT hLIGHT", "experimental": "This study was designed to compare the ability of ENG and WT hLIGHT mRNAs in combination with hIL-12 mRNA to stimulate primary human T cell proliferation. Human T cells were isolated from PBMCs from 1 healthy donor and stained with CellTrace Violet. HEK293 cells were transfected with hIL-12 mRNA (RNA-683) and WT hLIGHT (RNA-786) or ENG hLIGHT (RNA-1359) mRNA formulated in Lipofectamine MessengerMAX (0.5 ng each mRNA per 1000 cells). Control cells were transfected with noncoding mRNA control in the same way. Transfected HEK293 cells were cocultured with the T cells in a 1:5 ratio in the presence of 30 ng/mL or 100 ng/mL anti-CD3 antibody to mimic antigen specific TCR engagement for 4 days at 37° C., 5% CO2. CD8+ T cell proliferation was assessed by flow cytometry and the proliferation index was calculated. […] The results are shown in FIG. 10A, where ENG=engineered; HEK=human embryonic kidney; IL-12=interleukin-12; PBMC=peripheral blood mononuclear cell; WT=wildtype. The data in FIG. 10A represent mean±standard deviation (n=4). Statistical analysis was performed by unpaired student's t-test (P<0.05)."}, "[8]": {"system": "HEK cells", "experiment": "Surface expression of LIGHT on transfected cells by flow cytometry using HVEM binding", "format": "cell-based, human", "details": "compared to soluble (wild type) LIGHT", "from_the_text": "FIG. 2A-2D are graphs illustrating the membrane-bound protein produced by the membrane-stabilized LIGHT generated according to an aspect of this disclosure as compared to soluble LIGHT.\nFIGS. 14A and 14B depict the assessment of surface expression of soluble LIGHT or membrane-stabilized LIGHT by flow cytometry using HVEM binding.\nThis enhanced membrane stability for the disclosed membrane-stabilized LIGHT may increase the beneficial activity of LIGHT.\n(§1) LIGHT variants were formulated in MessengerMax mRNA Transfection Reagent. Human embryonic kidney (HEK) cells were transfected with the LIGHT variant constructs for cell surface expression of LIGHT. CellTrace Violet (Thermo Fischer Scientific) was used to label CD3+ T cells from the resulting peripheral blood mononuclear cells (PBMC). 100 ng/mL of soluble CD3 Antibody was added to the resulting labeled CD3+ T cells. The T cell proliferation and interferon-gamma (IFN-7) secretion was evaluated about 5 days of co-culture."}, "[9]": {"system": "CD3+ T cells", "experiment": "T cell proliferation in co-culture with LIGHT-transfected HEK cells (Example 1)", "format": "cell-based, human", "details": "versus soluble (Wt) LIGHT", "experimental": "as §1"}, "[10]": {"details": "High dose in rat: 4 doses in 2 weeks, 100 μg RNA IM"}, "[11]": {"details": "Therapeutic dose in mouse: 3 doses 7 days apart, ~1-2 μg RNA IT or IM"}}, "note": "Entries after “also recorded” stand apart in the source; their conditions may differ.", "data": [{"molecule": "CCCCCCCCCCN(CC(N)=O)C(=O)CN(CCCCCCCCCC)C(=O)CN(CCCCCCCCCC)C(=O)CN(CCCCCCCCCC)C(=O)CNCCO", "note": "[Compound 140, N-(2-amino-2-oxoethyl)-N-decyl-2-(N-decyl-2-(N-decyl-2-(N-decyl-2-((2-hydroxyethyl)amino)acetamido)acetamido)acetamido)acetamide]", "values": [{"measurement": "Gross organ pathology", "setting": "[1]; [10]", "result": "None observed"}, {"measurement": "Injection site reactions or other clinical observations", "setting": "[1]; [10]", "result": "None observed"}, {"measurement": "Clinical chemistries", "setting": "[1]; High dose in rat: 4 doses in 2 weeks, 100 μg RNA IM, compared to control", "result": "No meaningful changes"}, {"measurement": "Hematology parameters", "setting": "[1]; High dose in rat: 4 doses in 2 weeks, 100 μg RNA IM, return to baseline by D30", "result": "Some transient changes"}, {"measurement": "Serum cytokines", "setting": "[1]; High dose in rat: 4 doses in 2 weeks, 100 μg RNA IM, subset of cytokines, return to baseline by D30", "result": "Elevated levels in subset"}, {"measurement": "tolerability", "setting": "[1]; rat toxicology studies", "result": "well-tolerated"}, {"measurement": "Body weight", "setting": "[2]", "result": "No changes compared"}, {"measurement": "Gross organ pathology", "setting": "[2]", "result": "None observed"}, {"measurement": "Injection site reactions or other clinical observations", "setting": "[2]", "result": "None observed"}, {"measurement": "Clinical chemistries", "setting": "[2]; compared to control", "result": "No meaningful changes"}, {"measurement": "Hematology parameters", "setting": "[2]; compared to control", "result": "No changes compared"}, {"measurement": "Serum cytokines", "setting": "[2]; compared to control", "result": "No changes compared"}, {"measurement": "Body weight", "setting": "[3]; [11]", "result": "No changes compared"}, {"measurement": "Injection site reactions or other clinical observations", "setting": "[3]; [11]", "result": "None observed"}, {"measurement": "tolerability", "setting": "[3]; mouse efficacy studies", "result": "well-tolerated"}]}, {"molecule": "pembrolizumab [KEYTRUDA]", "values": [{"measurement": "objective response", "setting": "[4]", "result": "around 14%"}, {"measurement": "overall survival", "setting": "[5]", "result": "improvements"}]}, {"molecule": "soluble LIGHT: Wild-type soluble human LIGHT (protein, Human Wild Type LIGHT (786) aa) MEESVVRPSVFVVDGQTDIPFTRLGRSHRRQSCSVARVGLGLLLLLMGAGLAVQGWFLLQLHWRLGEMVTRLPDGPAGSWEQLIQERRSHEVNPAAHLTGANSSLTGSGGPLLWETQLGLAFLRGLSYHDGALVVTKAGYYYIYSKVQLGGVGCPLGLASTITHGLYKRTPRYPEELELLVSQQSPCGRATSSSRVWWDSSFLGGVVHLEAGEEVVVRVLDERLVRLRDGTRSYFGAFMV", "values": [{"measurement": "effect of soluble LIGHT on HVEM activation/signaling by membrane-stabilized LIGHT", "setting": "[6]; presence of soluble LIGHT", "result": "decreases; also recorded: competes for HVEM binding and reduces signaling"}]}, {"molecule": "ENG hLIGHT: mRNA encoding human LIGHT with amino acids 66-92 replaced by 10 amino acid linker …; membrane-stabilized (nucleic acid, LIGHT ICD TM 1-66 RLG … LIGHT 92-240 1359, aka 1495 nt, mRNA encoding human LIGHT with amino acids 66-92 replaced by 10 amino acid linker …; membrane-stabilized) AGGCAUAGAAGUCGAGACACAGCCACUAAGUAAGCCACCAUGGAGGAGAGCGUGGUGCGGCCUAGCGUGUUCGUGGUCGACGGCCAGACCGACAUCCCCUUCACCAGACUGGGAAGAAGCCACAGAAGGCAGUCUUGCUCCGUGGCCAGAGUGGGCCUGGGCCUGCUCCUGCUGCUGAUGGGCGCUGGCCUGGCCGUGCAAGGCUGGUUCCUGCUGCAGCUGCACUGGCGGCUGGGCAGCAGCGCCUCUACCGAUAAGACCCACACCGUGAACCCUGCCGCCCACCUGACCGGCGCCAACAGCUCUCUGACCGGAUCUGGCGGACCUCUGCUGUGGGAGACACAGCUGGGCCUUGCUUUUCUGCGGGGCCUGAGCUACCACGACGGCGCUCUGGUGGUUACAAAGGCCGGCUACUACUACAUCUACAGCAAGGUGCAGCUGGGAGGCGUGGGUUGUCCACUGGGACUGGCCAGCACAAUCACACACGGCCUUUAUAAGCGGACCCCUAGAUACCCCGAGGAACUGGAACUGCUGGUCUCCCAGCAGAGCCCUUGCGGCAGAGCCACAAGCAGCAGCAGAGUGUGGUGGGACAGCUCAUUCCUGGGCGGCGUGGUGCAUCUGGAAGCCGGCGAGAAAGUGGUGGUCAGAGUGCUGGACGAGAGACUGGUGCGGCUGAGAGAUGGGACCCGCUCCUACUUCGGCGCCUUUAUGGUGUGAUAAGCGCCGCCUCCGGGACAGUGCACCCAGGCUGCGGCCCCUCCCCCGUCCUGGAGGUUCCCCAGCCCCACUUACCGCUUAAUGCGCCAAUAAACCAAUGAACGAAGCAAAAAAAAAAAAAAAAAAAAAAAAAAAAAAAAAAAAAAAAAAAAAAAAAAAAAAAAAAAAAAAAAAAAAAAAAAAAAAAAAAAAAAAAAAAAAAAAAAAAAAAAAAAAAAAAAAAAAAAAAAAAAAAAAAAAAAAAAAAAAAAAAAAAAAAAAAAAAAAAAAAAAAAAA", "values": [{"measurement": "bioactivity on transfected cells", "setting": "[6]; compared to WT LIGHT mRNA", "result": "higher"}, {"measurement": "CD8+ T cell proliferation and survival", "setting": "[7]", "result": "increased"}, {"measurement": "soluble fraction", "setting": "[8]", "result": "significantly lower"}, {"measurement": "cell-surface expression of membrane-bound protein", "setting": "[8]; listed as ENG LIGHT mRNA", "result": "higher"}, {"measurement": "cell-surface expression of membrane-bound protein", "setting": "[8]; listed as Engineered LIGHT", "result": "significantly higher"}, {"measurement": "T-cell proliferation", "setting": "[9]; listed as 1359", "result": "increase"}, {"measurement": "T-cell proliferation", "setting": "[9]; listed as ENG LIGHT mRNA", "result": "increased"}]}, {"molecule": "1356: mRNA encoding LIGHT ICD + TM (1-66) + (Gly4Ser)2 + LIGHT 92-240 (nucleic acid, LIGHT ICD TM 1-66 RLG Gly4Ser 2 LIGHT 92-240 1356 nt) AGGCAUAGAAGUCGAGACACAGCCACUAAGUAAGCCACCAUGGAAGAGUCUGUGGUCAGACCUAGCGUGUUCGUGGUCGACGGCCAGACCGACAUCCCCUUCACCAGACUGGGAAGAAGCCAUAGAAGACAGAGCUGCAGCGUGGCCAGAGUGGGCCUCGGCCUGCUGCUGCUGCUGAUGGGCGCUGGCCUGGCCGUGCAAGGCUGGUUCCUGCUGCAGCUGCACUGGCGGCUGGGCGGAGGCGGCGGCUCUGGCGGCGGAGGCUCCGUGAACCCCGCCGCCCACCUGACCGGCGCCAACAGCAGCCUGACAGGCAGCGGCGGUCCUCUGCUGUGGGAAACCCAGCUGGGACUGGCUUUUCUGAGAGGCCUGAGCUACCACGACGGCGCCCUGGUGGUGACCAAGGCCGGCUAUUACUACAUCUACAGCAAGGUGCAGCUGGGCGGCGUUGGAUGUCCUCUGGGCCUGGCUUCUACAAUCACCCACGGCCUGUACAAGCGGACCCCUAGAUACCCUGAGGAACUGGAGCUGCUGGUGUCCCAGCAGUCCCCAUGCGGCCGGGCCACAAGCUCUUCUAGAGUGUGGUGGGAUAGCAGCUUCCUGGGCGGAGUGGUGCACCUCGAGGCCGGAGAGAAAGUGGUGGUGCGGGUGCUGGAUGAGAGACUGGUUAGGCUGCGCGACGGCACACGGAGCUACUUCGGCGCCUUUAUGGUGUGAUAAGCGCCGCCUCCGGGACAGUGCACCCAGGCUGCGGCCCCUCCCCCGUCCUGGAGGUUCCCCAGCCCCACUUACCGCUUAAUGCGCCAAUAAACCAAUGAACGAAGCAAAAAAAAAAAAAAAAAAAAAAAAAAAAAAAAAAAAAAAAAAAAAAAAAAAAAAAAAAAAAAAAAAAAAAAAAAAAAAAAAAAAAAAAAAAAAAAAAAAAAAAAAAAAAAAAAAAAAAAAAAAAAAAAAAAAAAAAAAAAAAAAAAAAAAAAAAAAAAAAAAAAAAAAA", "values": [{"measurement": "T-cell proliferation", "setting": "[9]", "result": "increase"}]}]}
